Measured values published in ChEMBL document CHEMBL5528083, “Discovery of a Novel Thienopyrimidine Compound as a Urate Transporter 1 and Glucose Transporter 9 Dual Inhibitor with Improved Efficacy and Favorable Druggability” (J Med Chem, 2024).

Legend:
[1] = Toxicity in Kunming female mouse assessed as renal injury at 100 mg/kg, po administered every other day for 14 days by H and E staining based assay; assay type: organism-based; details: in vivo, 336 h, time 14 day
Mus musculus [2] = species: Mus musculus; assay: Reduction in serum uric acid level in acute hyperuricemia state Kunming mouse model assessed as SUA level by measuring decrease ratio relative to control; assay type: functional; parameters: concentration or dose not given beside the values
[3] = Toxicity in Kunming female mouse assessed as coagulation necrosis of hepatocyte at 100 mg/kg, po administered every other day for 14 days by H and E staining based assay; assay type: organism-based; details: 336 h, time 14 day
Mus musculus [4] = species: Mus musculus; assay: Reduction in serum uric acid level in chronic hyperuricemia state Kunming mouse model assessed as SUA level by measuring decrease ratio relative to control; assay type: functional; parameters: scale not given: the % may be the effect or the level left
[5] = Acute toxicity in Kunming mouse assessed as fatality rate at 1000 mg/kg, po administered as single dose monitored for 7 days; assay type: organism-based; details: Kunming, in vivo, time 7 day, read-out: Activity
Mus musculus [6] = assay: Reduction in serum uric acid level in acute hyperuricemia state Kunming mouse model assessed as SUA level at 2 mg/kg, po (reference value: 1037 +/- 106.59 uM); assay type: functional
[7] = Acute toxicity in Kunming mouse assessed as fatality rate at 500 mg/kg, po administered as single dose monitored for 7 days; assay type: organism-based; details: Kunming, in vivo, time 7 day, read-out: Activity
[8] = Toxicity in Kunming female mouse assessed as balloon like degeneration of liver at 100 mg/kg, po administered every other day for 14 days by H and E staining based assay; assay type: organism-based; details: in vivo, 336 h, time 14 day
Mus musculus [9] = species: Mus musculus; assay: Reduction in serum uric acid level in chronic hyperuricemia state Kunming mouse model assessed as SUA level (reference value: 660.33 +/- 103.57 uM); assay type: functional
Mus musculus [10] = species: Mus musculus; assay: Reduction in serum uric acid level in acute hyperuricemia state Kunming mouse model assessed as SUA level; assay type: functional
Rattus norvegicus [11] = assay: Reduction in serum uric acid level in po dosed acute hyperuricemia state Sprague-Dawley rat model assessed as SUA level by measuring decrease ratio relative to control; assay type: functional; parameters: scale not given: the % may be the effect or the level left
[12] = Subacute toxicity in Kunming mouse assessed as abnormal behavior at 25 mg/kg, po administered every other day for 14 days; assay type: organism-based; details: in vivo, 336 h, time 14 day
[13] = target: Xanthine dehydrogenase/oxidase (Bos taurus, UniProt P80457); assay: Inhibition of bovine XOD using xanthine as substrate assessed as inhibitory ratio at 10 uM by spectrophotometric analysis relative to control; details: cattle
Rattus norvegicus [14] = assay: Reduction in serum uric acid level in po dosed acute hyperuricemia state Sprague-Dawley rat model assessed as SUA level (reference value: 955.20 +/- 85.56 uM); assay type: functional
Mus musculus [15] = assay: Reduction in serum uric acid level in acute hyperuricemia state Kunming mouse model assessed as SUA level by measuring decrease ratio at 2 mg/kg, po relative to control; assay type: functional; parameters: scale not given: the % may be the effect or the level left

Xanthine dehydrogenase/oxidase, sequence (P80457 whole entry): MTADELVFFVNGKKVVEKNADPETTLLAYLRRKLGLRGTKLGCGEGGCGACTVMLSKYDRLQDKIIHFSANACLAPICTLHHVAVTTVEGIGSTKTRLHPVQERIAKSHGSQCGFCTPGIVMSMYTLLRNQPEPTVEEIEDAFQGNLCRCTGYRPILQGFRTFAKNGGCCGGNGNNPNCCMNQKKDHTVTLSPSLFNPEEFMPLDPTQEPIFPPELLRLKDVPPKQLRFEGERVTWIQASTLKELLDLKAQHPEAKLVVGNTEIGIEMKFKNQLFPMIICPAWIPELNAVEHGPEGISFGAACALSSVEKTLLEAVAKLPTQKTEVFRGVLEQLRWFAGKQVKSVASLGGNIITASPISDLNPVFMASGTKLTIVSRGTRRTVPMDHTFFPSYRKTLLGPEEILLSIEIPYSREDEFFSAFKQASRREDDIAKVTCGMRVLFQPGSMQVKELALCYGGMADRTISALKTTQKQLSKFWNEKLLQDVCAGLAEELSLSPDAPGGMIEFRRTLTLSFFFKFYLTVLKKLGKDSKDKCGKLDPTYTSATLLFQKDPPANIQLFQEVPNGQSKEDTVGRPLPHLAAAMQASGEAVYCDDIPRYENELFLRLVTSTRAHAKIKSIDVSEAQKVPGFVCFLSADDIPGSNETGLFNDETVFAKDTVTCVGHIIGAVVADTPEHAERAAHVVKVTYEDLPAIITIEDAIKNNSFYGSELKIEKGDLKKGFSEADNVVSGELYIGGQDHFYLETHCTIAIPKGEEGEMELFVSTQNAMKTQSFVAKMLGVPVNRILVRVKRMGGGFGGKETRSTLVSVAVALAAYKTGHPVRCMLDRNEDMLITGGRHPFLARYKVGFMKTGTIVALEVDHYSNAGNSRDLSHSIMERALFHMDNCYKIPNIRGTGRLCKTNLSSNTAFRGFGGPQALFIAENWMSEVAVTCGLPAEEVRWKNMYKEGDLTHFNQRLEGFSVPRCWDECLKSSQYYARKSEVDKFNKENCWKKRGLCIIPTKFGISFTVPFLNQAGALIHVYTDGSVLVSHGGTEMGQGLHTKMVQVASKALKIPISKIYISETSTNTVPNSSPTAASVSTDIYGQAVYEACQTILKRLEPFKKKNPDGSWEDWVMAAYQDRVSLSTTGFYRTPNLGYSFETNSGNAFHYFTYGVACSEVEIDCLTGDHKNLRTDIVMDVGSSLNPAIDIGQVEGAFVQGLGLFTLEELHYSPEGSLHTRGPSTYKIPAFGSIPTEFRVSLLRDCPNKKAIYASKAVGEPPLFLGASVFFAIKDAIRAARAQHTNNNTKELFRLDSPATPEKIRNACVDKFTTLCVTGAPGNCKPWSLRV

O=C(O)CSc1nnc(Br)n1-c1ccc(C2CC2)c2ccccc12
Activity [1]: Toxic | Activity (Mus musculus [2]): 28.5% | Activity [3]: Toxic | Activity (Mus musculus [4]): 33.56% | mortality at 168 h [5]: 60% | Activity (Mus musculus [6]): 706.25 µM | mortality at 168 h [7]: 20% | Activity [8]: Toxic | Activity (Mus musculus [9]): 476 µM | Activity (Mus musculus [10]): 841.2 µM | Activity (Rattus norvegicus [11]): 31.77% | Activity [12]: Non-Toxic | inhibition at 10 µM [13]: 5.72% | Activity (Rattus norvegicus [14]): 685.6 µM | Activity (Mus musculus [15]): 35.56%
